Assay results from patent US20060281791A1, “Methods of increasing proliferation of adult mammalian cardiomyocytes through p38 map kinase inhibition” (CHILDREN'S MEDICAL CENTER CORPORATION, priority 2005, published 2006).
“And” between values parts separate entries of the source, which are not always exact repeats. Equal entries are not always repeated.

System: neonatal rat cardiomyocytes
Experiment: cDNA microarray analysis (Affymetrix Rat Expression Set 230), x-fold changes of clustered genes
Format: cell-based
Conditions: 72 h, experiments (1) and (2)
Experimental: Animal experiments were performed in accordance with guidelines of Children's Hospital, Boston and UCLA. Ventricular cardiomyocytes from fetal (E19), 2-day-old (P2) and adult (250-350 g) Wistar rats (Charles River) were isolated as described with minor modifications (Engel et al. 1999; Engel et al. 2003). After digestion of fetal or neonatal hearts (0.14 mg/ml collagenase II (Invitrogen), 0.55 mg/ml pancreatin (Sigma)) cells were cultured in DMEM/F12 (GIBCO) containing 3 mM Na-pyruvate, 0.2% BSA, 0.1 mM ascorbic acid (Sigma), 0.5% Insulin-Transferrin-Selenium (100×), penicillin (100 U/ml), streptomycin (100 μg/ml), and 2 mM L-glutamine (GIBCO). Adult cardiomyocytes were cultured for 1 day in standard medium (DMEM, 25 mM Hepes, 5 mM taurine, 5 mM creatine, 2 mM L-carnitine (Sigma), 20 U/ml insulin (GIBCO), 0.2% BSA, penicillin (100 U/ml), and streptomycin (100 μg/ml)). Cells were stimulated in culture medium without BSA containing 2 mM L-glutamine. Neonatal and adult cardiomyocytes were initially cultured for 48 h in the presence of 20 μM cytosine β-D-arabinofuranoside (araC, Sigma) and 5% horse serum before stimulation to prevent proliferation of non-myocytes. Adult cardiomyocytes were incubated another 3 days with araC during stimulation. Neonatal cardiomyocytes were stimulated every day with growth factors for BrdU and H3P analyses (FGF1 and NRG-1-1β at 50 ng/ml, IL-1β at 100 ng/ml, R&D Systems, all diluted in 0.1% BSA/PBS). SB203580 and LY294002 (Calbiochem) was added every day. Adult cardiomyocytes were stimulated with fresh medium and SB203580 every 3 days.
RNA of neonatal cardiomyocytes was prepared 72 h after stimulation using Trizol (Invitrogen). RT-PCR was performed following standard protocols (Supplemental Table S4). Affymetrix technology was applied using the Rat Expression Set 230.
To determine the effect of p38 inhibition on cardiomyocyte differentiation and proliferation, a specific inhibitor of p38α and p38β, SB203580, was used and evaluated using cDNA microarray analyses using neonatal rat cardiomyocytes. […] Expression changes of a subset of genes were validated by RT-PCR.
Stimulation of neonatal cardiomyocytes with FGF1 induces fetal gene expression. To determine if FGF1, in combination with p38 inhibition, can reverse differentiation and induce cell cycle re-entry, we repeated cDNA microarray analyses (Supplemental Table S1). […]

- Protein tyrosine phosphatase, receptor type, D (Ptprd) expression, x-fold change: 0.5 x-fold
- Serine-threonine specific protein phosphatase, GL subunit expression, x-fold change: 0.7 x-fold
- Adrenergic, alpha 1B-, receptor expression, x-fold change (listed as FGF): 0.8 x-fold and 0.7 x-fold
- Cacalmodulin-dependent protein kinase phosphatase expression, x-fold change (listed as FGF): 0.9 x-fold and 1.3 x-fold
- Casein kinase I delta expression, x-fold change (listed as FGF): 1.3 x-fold and 0.9 x-fold
- Growth hormone receptor expression, x-fold change (listed as FGF): 0.7 x-fold and 0.8 x-fold
Substance: FGF1: growth factor FGF1 (R&D Systems)
- Actn1 expression, x-fold change: 1.9 x-fold
- CXC chemokine LIX expression, x-fold change: 0.4 x-fold
- Cdc42 effector protein expression, x-fold change: 0.8 x-fold
- Cfl1 expression, x-fold change: 0.6 x-fold
- Connexin 40 expression, x-fold change: 0.8 x-fold
- Edg2 expression, x-fold change: 0.4 x-fold
- Enigma expression, x-fold change: 2.3 x-fold
- Epha3 expression, x-fold change: 0.5 x-fold
- Epidermal growth factor-like protein, T16 precursor expression, x-fold change: 0.3 x-fold
- Fgf16 expression, x-fold change: 0.8 x-fold
- Figf expression, x-fold change: 0.3 x-fold
- Kruppel-like factor 4 expression, x-fold change: 1.1 x-fold
- Lgals5 expression, x-fold change: 2.9 x-fold
- Maf-2 expression, x-fold change: 0.5 x-fold
- Mtss1 expression, x-fold change: 0.5 x-fold
- Nr2f2/COUP-TFII expression, x-fold change: 0.8 x-fold
- Nudt4 expression, x-fold change: 0.8 x-fold
- Osteoglycin expression, x-fold change: 0.4 x-fold
- Osterix expression, x-fold change: 0.6 x-fold
- PTTG1 expression, x-fold change: 1.4 x-fold
- RPTPK expression, x-fold change: 0.4 x-fold
- Rbp2 expression, x-fold change: 0.6 x-fold
- Rdc1 expression, x-fold change: 0.5 x-fold
- Rev-ErbA-beta expression, x-fold change: 0.7 x-fold
- RhoGAP expression, x-fold change: 0.8 x-fold
- Septin 6 expression, x-fold change: 1.9 x-fold
- Seta expression, x-fold change: 1.0 x-fold
- TRAF4 associated factor 1 expression, x-fold change: 1.9 x-fold
- Troponin I, slow isoform expression, x-fold change: 0.6 x-fold
- Vcam1 expression, x-fold change: 0.3 x-fold
- Wisp2 expression, x-fold change: 0.8 x-fold
- (BEM)-3 expression, x-fold change (listed as FGF): 1.4 x-fold and 1.6 x-fold
- AGTR1 expression, x-fold change (listed as FGF): 0.4 x-fold and 0.5 x-fold
- Acta1 expression, x-fold change (listed as FGF): 4.8 x-fold and 6.3 x-fold
- Actinin expression, x-fold change (listed as FGF): 1.8 x-fold and 1.5 x-fold
- Adrenomedullin precursor expression, x-fold change (listed as FGF): 0.4 x-fold and 0.6 x-fold
- Agtr1a expression, x-fold change (listed as FGF): 0.6 x-fold and 0.4 x-fold
- Anillin expression, x-fold change (listed as FGF): 3.3 x-fold and 1.9 x-fold
- Ankyrin 2, neuronal expression, x-fold change (listed as FGF): 0.6 x-fold and 0.7 x-fold
- Ankyrin repeat domain-containing SOCS box protein 12 expression, x-fold change (listed as FGF): 0.5 x-fold and 0.6 x-fold
- Apoptosis protein MA-3 expression, x-fold change (listed as FGF): 0.8 x-fold and 0.7 x-fold
- Arrestin domain containing 3 expression, x-fold change (listed as FGF): 0.3 x-fold and 0.5 x-fold
- Aurora B expression, x-fold change (listed as FGF): 1.5 x-fold and 1.9 x-fold
- BMP2 expression, x-fold change (listed as FGF): 6.0 x-fold and 3.4 x-fold
- BMP6 precursor expression, x-fold change (listed as FGF): 1.4 x-fold and 1.7 x-fold
- BOC expression, x-fold change (listed as FGF): 0.5 x-fold and 0.6 x-fold
- Bcl2a1 expression, x-fold change (listed as FGF): 0.4 x-fold and 0.6 x-fold
- Bmp3 expression, x-fold change (listed as FGF): 0.5 x-fold and 0.6 x-fold
- Bub1 expression, x-fold change (listed as FGF): 1.4 x-fold and 1.2 x-fold
- CABC1 expression, x-fold change (listed as FGF): 0.6 x-fold and 0.5 x-fold
- CDKN3/KAP/CDI1 expression, x-fold change (listed as FGF): 1.7 x-fold and 2.0 x-fold
- CENP-E expression, x-fold change (listed as FGF): 1.3 x-fold and 1.7 x-fold
- CISH expression, x-fold change (listed as FGF): 0.4 x-fold and 0.5 x-fold
- CKS2 expression, x-fold change (listed as FGF): 1.7 x-fold and 1.4 x-fold
- CREB5 expression, x-fold change (listed as FGF): 1.3 x-fold and 1.8 x-fold
- CSRP1 expression, x-fold change (listed as FGF): 1.9 x-fold and 1.8 x-fold
- CXCL4 expression, x-fold change (listed as FGF): 0.7 x-fold and 0.6 x-fold
- Cadherin 13 expression, x-fold change (listed as FGF): 1.5 x-fold and 1.9 x-fold
- Calponin 1 expression, x-fold change (listed as FGF): 6.4 x-fold and 4.9 x-fold
- Catenin, alpha-1 expression, x-fold change (listed as FGF): 1.6 x-fold and 1.5 x-fold
- Cdc2a expression, x-fold change (listed as FGF): 1.7 x-fold and 1.8 x-fold
- Cdc20 expression, x-fold change (listed as FGF): 1.9 x-fold and 1.7 x-fold
- Cdc25B expression, x-fold change (listed as FGF): 1.6 x-fold and 1.3 x-fold
- Cdca3 expression, x-fold change (listed as FGF): 1.3 x-fold and 1.4 x-fold
- Cish2 expression, x-fold change (listed as FGF): 0.6 x-fold and 0.8 x-fold
- Cish3 expression, x-fold change (listed as FGF): 0.8 x-fold and 0.9 x-fold
- Cish expression, x-fold change (listed as FGF): 0.4 x-fold and 0.5 x-fold
- Connexin 43 expression, x-fold change (listed as FGF): 0.9 x-fold and 0.8 x-fold
- Csrp3/MLP expression, x-fold change (listed as FGF): 2.7 x-fold and 4.2 x-fold
- Ctgf expression, x-fold change (listed as FGF): 1.9 x-fold and 1.6 x-fold
- Cxcl12 expression, x-fold change (listed as FGF): 0.5 x-fold and 0.3 x-fold
- Cyclin A2 expression, x-fold change (listed as FGF): 1.8 x-fold and 1.1 x-fold
- Cyclin B1 expression, x-fold change (listed as FGF): 1.2 x-fold and 1.0 x-fold
- Cyclin B expression, x-fold change (listed as FGF): 1.9 x-fold and 1.8 x-fold
- Cyclin D1 expression, x-fold change (listed as FGF): 4.2 x-fold and 3.3 x-fold
- DAPK1 expression, x-fold change (listed as FGF): 0.6 x-fold and 0.5 x-fold
- DUSP6 expression, x-fold change (listed as FGF): 2.8 x-fold and 4.4 x-fold
- Ddr2 expression, x-fold change (listed as FGF): 0.5 x-fold and 0.8 x-fold
- Desmin expression, x-fold change (listed as FGF): 2.2 x-fold and 1.8 x-fold
- Diaphanous homolog 3 expression, x-fold change (listed as FGF): 2.5 x-fold and 1.9 x-fold
- Dok-5 expression, x-fold change (listed as FGF): 2.7 x-fold and 2.6 x-fold
- Dri42 expression, x-fold change (listed as FGF): 0.5 x-fold and 0.3 x-fold
- ETV5/ERM/PEA3 expression, x-fold change (listed as FGF): 20.4 x-fold and 11.2 x-fold
- Ect2 expression, x-fold change (listed as FGF): 1.9 x-fold and 2.5 x-fold
- Egfl3 expression, x-fold change (listed as FGF): 0.4 x-fold and 0.5 x-fold
- Emr1 expression, x-fold change (listed as FGF): 0.6 x-fold and 0.4 x-fold
- EphA2 expression, x-fold change (listed as FGF): 2.2 x-fold and 1.7 x-fold
- Ephrin B3 expression, x-fold change (listed as FGF): 0.7 x-fold and 0.8 x-fold
- FCEG expression, x-fold change (listed as FGF): 0.7 x-fold and 0.5 x-fold
- FHL1 expression, x-fold change (listed as FGF): 7.3 x-fold and 5.1 x-fold
- FHOS2 expression, x-fold change (listed as FGF): 0.7 x-fold and 0.8 x-fold
- Fancd2 expression, x-fold change (listed as FGF): 0.7 x-fold and 1.1 x-fold
- Fbln5 expression, x-fold change (listed as FGF): 0.4 x-fold and 0.6 x-fold
- Fcgr2 expression, x-fold change (listed as FGF): 0.5 x-fold and 0.6 x-fold
- Fcgr3 expression, x-fold change (listed as FGF): 0.5 x-fold and 0.6 x-fold
- Flt4/VEGFR3 expression, x-fold change (listed as FGF): 1.8 x-fold and 2.5 x-fold
- Frizzled-related protein 2 expression, x-fold change (listed as FGF): 0.5 x-fold and 0.3 x-fold
- Fzd1 expression, x-fold change (listed as FGF): 0.7 x-fold and 0.8 x-fold
- G0S2-like protein expression, x-fold change (listed as FGF): 0.5 x-fold and 0.6 x-fold
- GADD45a expression, x-fold change (listed as FGF): 1.8 x-fold and 1.3 x-fold
- GADD45 gamma expression, x-fold change (listed as FGF): 3.0 x-fold and 2.9 x-fold
- GDF15 expression, x-fold change (listed as FGF): 1.6 x-fold and 2.6 x-fold
- GOA1B expression, x-fold change (listed as FGF): 2.9 x-fold and 3.0 x-fold
- Gab1 expression, x-fold change (listed as FGF): 0.6 x-fold and 0.7 x-fold
- Ghr expression, x-fold change (listed as FGF): 0.9 x-fold and 0.8 x-fold
- Glypican (GPC)-3 expression, x-fold change (listed as FGF): 0.4 x-fold and 0.5 x-fold
